The results in this text go back to patent publication US10537575B2, “Phosphodiesterase inhibitors to repair brain and/or retinal injury in human newborns” (priority 2016, dated 2020).

Assay [1] has as its system Long-Evans rat pups (term neonatal HIE model). In kind it is in vivo. To be noted: HI rat pups. The source says:
The experiments were run in a dark environment (below 20 lux of illumination). The equipment consists of a 1.3 m-long glass plate with a dim fluorescent light coming from the side and beamed into the glass. The light reflected downwards by the rats' paws as they contact the glass floor is captured by a high-speed video camera placed under the walkway, and then transformed into a digital image ([…] et al., 2006; Hetze S et al., 2012; Lubjuhn J et al., 2009, […] et al., 2013, Wang Y et al., 2008). The walkway was 90 mm wide. The camera was positioned 40 cm below the walkway, and automatic detection settings were applied. The rat pups walked spontaneously at their own speed; the mother was systematically placed in the goal box to motivate the rat pups to run towards it. An intensity threshold was set to 0.1, the camera gain was set to 20, and the maximum allowed speed variation was set to 60%. A minimum of three quality runs per rat pups were acquired. Only uninterrupted runs were saved for analysis; runs, where animals turned or walked backwards, were excluded, and the animal got another try. […] Step sequence regularity index is a percent index for the degree of interlimb coordination during the gait, as measured by the number of normal step sequence patterns, multiplied by the number of paws and divided by the number of paw placements. […]

For assay [2] the test system is unchanged. Nature of the assay: Microvessel density (collagen IV staining) at P30. In kind it is in vivo. Particulars: HI, sildenafil 50 mg/kg, p<0.01. On the procedure: In addition, using the fourth slide prepared for each animal, an immunohistochemistry with collagen IV staining also was used to assess microvessel density. Sections were labeled with an anti-collagen type IV antibody (EMD Millipore: AB769, Temecula, Calif., USA) (dilution 1:400, incubation time overnight at room temperature) (Tong X K et al., 2005). Then, these sections were incubated with the secondary antibody CyTM3-conjugated AffiniPure donkey anti-goat IgG (Cedarlane: 705-165-147, West Grove, Pa., USA) (dilution 1:400, incubation time 1 hour at room temperature). These sections were rinsed with tris-buffered saline and cover slipped with Vectashield Mounting media containing 4,6-diamidino-2-phenylindole (DAPI) (Vector Laboratories: H1200, Burlingame, Calif., USA) to visualize cell nuclei. To estimate microvessel density, single-layer immunoreactive blood vessels in all orientations were counted as individual microvessels. Collagen IV staining in large vessels with tunica media were disregarded in the microvessel counts (Hallene K L et al., 2006, Iwai M et al., 2007; Noguchi T et al., 2008; Rigau V et al., 2007; Wintermark P et al., 2013; Shaikh H et al., 2015). […] One investigator took pictures of the respective fields of view at 10× magnification.

Structures are written as SMILES.

Regarding `CCCc1nn(C)c2c(=O)[nH]c(-c3cc(S(=O)(=O)N4CCN(C)CC4)ccc3OCC)nc12` [sildenafil], the “print length (gait)” value in assay [1] (high-dose of sildenafil) is “showed an increase”. Besides, the “neurological deficits as measured by the gait analysis” value in assay [1] (sildenafil even in small doses) is listed as “improvement of the neurological deficits”. For the same molecule, the “microvessel density near the infarct boundary zone, median (IQR)” value in assay [2] is listed as 211 (182; 221).
